Assay results published in paper PMC12192727, “Strategies to Develop Na,K-ATPase-α4 Inhibitors as Male Contraceptives” (International Journal of Molecular Sciences, 2025).
Where two headings read alike, the source gives them in different places. Marks after values point to notes of the source that are not given here.

Tests used:
in vitro = conditions: dog, MDCK, MDCK cells
hERG channel = hERG channel (Homo sapiens, UniProt Q12809); assay: hERG inhibition manual patch-clamp assay (HEK293)
[1] = In vivo pharmacokinetic study; design: species or system CD-1 mice; conditions: for Plasma concentration (mean): BLOQ = 0.5 ng/mL; for MRT inf: read-out: MRTInf_obs
Protocol: Male CD-1 mice (approximately 6–8 weeks old, weighing 20–25 g, supplied by Vital River, Beijing, China) were used for the pharmacokinetic studies. Each mouse (n = 2) received either a bolus intravenous injection via the tail vein or oral gavage administration of the test compound. The formulation consisted of 20% HP-b-CD in PBS (pH 7.4), administered at a dose level of 10 mg/kg. The intravenous dose volume was 5 mL/kg, while the oral dose volume was 10 mL/kg. […] At the end of the study, the mice were euthanized by the inhalation of rising carbon dioxide concentrations. Samples were centrifuged at 4000× g for 5 min at 4 °C to obtain plasma. The plasma samples were stored at −75 ± 15 °C before analysis. Plasma samples were analyzed using the LC/MS/MS method. WinNonlin (PhoenixTM, version 8.3) software was employed for pharmacokinetic analysis calculations. The experimental details are reported in the Supporting Information. […]
Snap Shot PK of 45 in CD1-Mice
Formulations IV 20% HP-b-CD in PBS
(1 picture or pasted object on this page, not shown here)
Dosing Solutions: IV 2 mg/mL
IV&PO Plasma: 0 .5, 1, 3, and 5 h
Blood Sampling @ post dose
Mobile Phase A 5% Acetonitrile in Water (0.1%Formic acid)
Quantification Internal Standard Method
10 uL of plasma sample + 5 uL of blank solution +
200 uL of acetonitrile for PPE (protein precipitation
1. BLOQ = 0.5 ng/mL for plasma
3. PK parameters were estimated by non-compartmental model using WinNonlin 8.3
4. The bioavailability (F%) was calculated as following: […]

[2] = Stability in PBS (pH 7.4); assay type: physicochemical; conditions: PBS pH 7.4, compound remaining after 60 min
Protocol: Solubility, permeability, compound stability, metabolic stability, and toxicity studies were performed at Pharmaron (Waltham, MA, USA).

[3] = Metabolic stability in mouse hepatocytes; assay type: in vitro ADME; conditions: mouse hepatocytes
Protocol: (§1) The in vitro metabolic half-life (t1/2) is calculated using the slope of the log−linear regression from the percentage of the parent compound remaining versus the time relationship (κ). The experimental details are reported in the Supporting Information (Tables S6 and S7).

mouse hepatocytes = assay: Metabolic stability in mouse hepatocytes; assay type: in vitro ADME
Protocol: as §1

[4] = Metabolic stability in human hepatocytes; assay type: in vitro ADME; conditions: human hepatocytes
Protocol: as §1

human hepatocytes = assay: Metabolic stability in human hepatocytes; assay type: in vitro ADME
Protocol: as §1

Caco-2 cell permeability = assay type: in vitro ADME, human; conditions: human
Protocol: (§2) The in vitro permeability and potential to be transported by P-gp (P-glycoprotein) were determined in a Caco-2 or MDCK cell line. Values are reported for a mass recovery > 60%. The efflux ratio was determined as follows: P^app(B-A)/Papp(A-B). The experimental details are reported in the Supporting Information (Tables S2–S5).
(§3) The recovery can be determined using the following equation:
(§4) Recovery%=(VA×[drug]acceptor+VD×[drug]donor)/(VD×[drug]initial, donor)
(§5) Where VA is the volume (in mL) in the acceptor well (0.235 mL for Ap→Bl flux, and 0.075 mL for
(§6) Bl→Ap), VD is the volume (in mL) in the donor well (0.075 mL for Ap→Bl flux, and 0.235 mL for
(§7) The leakage of Lucifer Yellow, in unit of percentage (%), can be calculated using the following
(§8) %LY leakage = 100×[LY]acceptor×0.3/([LY]donor×0.1+[LY]acceptor×0.3)
(§9) LY leakage of <1% is acceptable to indicate the well-qualified MDCK/ Caco-2 monolayer.
(§10) Table S5 . The Assessment of Caco-2 Cell Monolayer Integrity
(§11) The apparent permeability coefficient (Papp), Efflux ratio (ER), recovery percentage, and LY leakage percentage can be
(§12) calculated for Caco-2 Cell drug transport assays using the above equations. […]

Caco-2 cells = assay: Caco-2 cell permeability; assay type: in vitro ADME, human; conditions: Caco-2 cell line
Protocol: as §2, §3, §4, §5, §6, §7, §8, §9, §10, §11, §12

[5] = male, CD-1, mouse, plasma, CD1 mice, IV 10 mg/kg
[6] = male, CD-1, mouse, plasma, CD1 mice, PO 10 mg/kg
[7] = male, CD-1, mouse, plasma, IV 10 mg/kg
[8] = male, CD-1, mouse, plasma, PO 10 mg/kg
[9] = male, CD-1, mouse, CD1 mice, IV 10 mg/kg, plasma

Sequence of hERG channel (Q12809 whole entry): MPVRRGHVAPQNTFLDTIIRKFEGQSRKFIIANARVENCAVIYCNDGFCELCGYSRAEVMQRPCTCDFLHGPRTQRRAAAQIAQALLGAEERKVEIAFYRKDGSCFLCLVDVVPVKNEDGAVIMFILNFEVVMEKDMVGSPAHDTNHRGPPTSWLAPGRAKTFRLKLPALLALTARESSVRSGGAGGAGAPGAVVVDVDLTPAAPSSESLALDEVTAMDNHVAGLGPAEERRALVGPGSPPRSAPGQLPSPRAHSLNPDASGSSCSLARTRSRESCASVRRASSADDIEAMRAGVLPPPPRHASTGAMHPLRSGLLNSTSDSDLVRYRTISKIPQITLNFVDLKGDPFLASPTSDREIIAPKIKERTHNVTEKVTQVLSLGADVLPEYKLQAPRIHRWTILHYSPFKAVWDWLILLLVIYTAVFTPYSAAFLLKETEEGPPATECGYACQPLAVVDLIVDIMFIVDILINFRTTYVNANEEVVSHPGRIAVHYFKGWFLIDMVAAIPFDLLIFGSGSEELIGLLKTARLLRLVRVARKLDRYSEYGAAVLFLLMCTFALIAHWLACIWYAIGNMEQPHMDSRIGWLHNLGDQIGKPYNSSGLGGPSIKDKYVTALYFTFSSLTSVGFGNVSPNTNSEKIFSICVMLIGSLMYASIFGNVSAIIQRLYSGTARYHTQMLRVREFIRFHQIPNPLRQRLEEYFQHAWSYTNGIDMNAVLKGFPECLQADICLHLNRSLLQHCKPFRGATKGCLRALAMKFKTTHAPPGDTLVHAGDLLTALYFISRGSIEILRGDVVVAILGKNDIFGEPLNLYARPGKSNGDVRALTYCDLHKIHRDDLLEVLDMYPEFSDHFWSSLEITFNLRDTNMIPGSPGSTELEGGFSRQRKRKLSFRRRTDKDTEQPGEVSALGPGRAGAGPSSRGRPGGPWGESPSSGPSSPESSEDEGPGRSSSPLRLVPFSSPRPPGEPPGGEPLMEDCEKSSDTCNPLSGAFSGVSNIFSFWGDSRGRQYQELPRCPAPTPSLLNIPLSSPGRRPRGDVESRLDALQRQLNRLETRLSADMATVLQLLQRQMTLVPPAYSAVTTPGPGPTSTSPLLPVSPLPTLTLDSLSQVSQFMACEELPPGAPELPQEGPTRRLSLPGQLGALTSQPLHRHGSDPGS

With `C[C@]12CC[C@H]3[C@@H](CC=C4C[C@@H](O)CC[C@@]43C)[C@@H]1CC[C@@H]2c1cn(Cc2ccccc2)nn1` [Compound 13, (3S,8S,9S,10R,13S,14S,17S)-17-(1-Benzyl-1H-1,2,3-triazol-4-yl)-10,13-dimethyl-2,3,4,7,8,9,10,11,12,13,14,15,16,17-tetradecahydro-1H-cyclopenta[a]phenanthren-3-ol] the recovery (in vitro; Recovery (%) AP-BL) was 70.2% and the recovery (in vitro; Recovery (%) BL-AP) was 88.1%.

In the case of `CC12CCC(=O)C=C1CCCC2n1cc(-c2ccccc2)nn1` (stereo not shown) [Compound 45, 4a-Methyl-5-(4-phenyl-1H-1,2,3-triazol-1-yl)-4,4a,5,6,7,8-hexahydronaphthalen-2(3H)-one], the IC50 (hERG channel) is reported as over 30 µM, the AUC_%Extrap_obs ([1]; CD1 mice, IV 10 mg/kg) is reported as 0.250% and the AUClast/D ([1]; CD1 mice, IV 10 mg/kg) is reported as 55.9 kg·ng·h/mL/mg. For the same compound, the Vss_obs ([1]; CD1 mice, IV 10 mg/kg (supplement)) was 1.10 L/kg, the AUC_%Extrap_obs ([1]; CD1 mice, PO 10 mg/kg) was 3.43% and the AUClast/D ([1]; CD1 mice, PO 10 mg/kg) was 7.43 kg·ng·h/mL/mg. For the same compound, the “F% (oral bioavailability)” value ([1]; CD1 mice, PO 10 mg/kg, 10 mg/kg) was 13.7%, the “Plasma concentration (mean)” value ([1]; IV 10 mg/kg, 3 h) was “BLOQ” and the “Plasma concentration (mean)” value ([1]; IV 10 mg/kg, 5 h) was “BLOQ”. The bioavailability ([1]; male, CD-1, mouse, plasma, po, 10 mg/kg, CD1 mice, PO 10 mg/kg, read-out: F% (oral bioavailability)) was 14%, the AUC(0-inf) [1, 5] was 561 ng·h/mL and the AUC(0-t) [1, 5] was 559 ng·h/mL. The half-life [1, 5] was 7.5 min, the Vd ([1]; male, CD-1, mouse, plasma, CD1 mice, IV 10 mg/kg (Table 5), read-out: Vss) was 1.1 L/kg and the MRT inf [1, 5] was 3.7 min. For the same compound, the AUC(0-inf) [1, 6] was 77 ng·h/mL, the AUC(0-t) [1, 6] was 74.3 ng·h/mL and the Tmax [1, 6] was 30 min. The half-life [1, 6] was 64.2 min, the MRT inf [1, 6] was 67.8 min and the concentration at 0.5 h [1, 7] was 124 ng/mL. The concentration at 1 h [1, 7] was 7.76 ng/mL, the concentration at 0.5 h [1, 8] was 79.7 ng/mL and the concentration at 1 h [1, 8] was 22.8 ng/mL. For the same compound, the concentration at 3 h ([1]; male, CD-1, mouse, plasma, PO 10 mg/kg, 3 h) was 2.14 ng/mL, the concentration at 5 h ([1]; male, CD-1, mouse, plasma, PO 10 mg/kg, 5 h) was 1.71 ng/mL and the clearance ([1]; male, CD-1, mouse, plasma, mice, intravenous 10 mg/kg, read-out: clearance rate) was 297 mL/min/kg. The C0 [1, 9] was 1980 ng/mL, the Cmax [1, 9] was 124 ng/mL and the Cmax ([1]; male, CD-1, mouse, CD1 mice, PO 10 mg/kg, plasma) was 79.7 ng/mL. For the same compound, the Stability [2] was “Stability: 96% ^a”, the hepatocyte CLint at 1 μM ([3]; read-out: In vitro Clint) was 77.1 µL/min/1e6 cells and the CLint scaled at 1 µM ([3]; read-out: Scale-up Clint) was 911 mL/min/kg. The half-life at 1 µM ([3]; mouse, hepatocytes, read-out: In vitro T1/2) was 18 min, the “Remaining Percentage (%)” value (mouse hepatocytes; mouse boiled hepatocytes, 0 min) was 100.00% and the “Remaining Percentage (%)” value (mouse hepatocytes; mouse boiled hepatocytes, 15 min) was 104.93%. For the same compound, the “Remaining Percentage (%)” value (mouse hepatocytes; mouse boiled hepatocytes, 30 min) was 101.77%, the “Remaining Percentage (%)” value (mouse hepatocytes; mouse boiled hepatocytes, 60 min) was 101.78% and the “Remaining Percentage (%)” value (mouse hepatocytes; mouse boiled hepatocytes, 90 min) was 101.42%. For the same compound, the “Remaining Percentage (%)” value (mouse hepatocytes; mouse boiled hepatocytes, 120 min) was 100.86%, the “Hepatic Extraction Ratio (E)” value (mouse hepatocytes; mouse hepatocytes) was 0.91 and the “Predicted hepatic CL” value (mouse hepatocytes; mouse hepatocytes) was 81.91 mL/min/kg. For the same compound, the “Remaining Percentage (%)” value (mouse hepatocytes; mouse hepatocytes, 0 min) was 100.00%, the “Remaining Percentage (%)” value (mouse hepatocytes; mouse hepatocytes, 15 min) was 54.16% and the “Remaining Percentage (%)” value (mouse hepatocytes; mouse hepatocytes, 30 min) was 31.17%. The “Remaining Percentage (%)” value (mouse hepatocytes; mouse hepatocytes, 60 min) was 10.30%, the “Remaining Percentage (%)” value (mouse hepatocytes; mouse hepatocytes, 90 min) was 3.01% and the “Remaining Percentage (%)” value (mouse hepatocytes; mouse hepatocytes, 120 min) was 0.80%. The “Metabolic Stability in Hepatocytes (60 min), compound remaining” value (mouse hepatocytes; mouse, 60 min) was 10%, the hepatocyte CLint at 1 μM ([4]; read-out: In vitro Clint) was 36 µL/min/1e6 cells and the CLint scaled at 1 µM ([4]; read-out: Scale-up Clint) was 91.7 mL/min/kg. The half-life at 1 µM ([4]; human, hepatocytes, read-out: In vitro T1/2) was 38.5 min, the “Remaining Percentage (%)” value (human hepatocytes; human boiled hepatocytes, 0 min) was 100.00% and the “Remaining Percentage (%)” value (human hepatocytes; human boiled hepatocytes, 15 min) was 105.47%. For the same compound, the “Remaining Percentage (%)” value (human hepatocytes; human boiled hepatocytes, 30 min) was 106.55%, the “Remaining Percentage (%)” value (human hepatocytes; human boiled hepatocytes, 60 min) was 108.22% and the “Remaining Percentage (%)” value (human hepatocytes; human boiled hepatocytes, 90 min) was 105.29%. The “Remaining Percentage (%)” value (human hepatocytes; human boiled hepatocytes, 120 min) was 107.99%, the “Hepatic Extraction Ratio (E)” value (human hepatocytes; human hepatocytes) was 0.82 and the “Predicted hepatic CL” value (human hepatocytes; human hepatocytes) was 16.89 mL/min/kg. The “Remaining Percentage (%)” value (human hepatocytes; human hepatocytes, 0 min) was 100.00%, the “Remaining Percentage (%)” value (human hepatocytes; human hepatocytes, 15 min) was 83.47% and the “Remaining Percentage (%)” value (human hepatocytes; human hepatocytes, 30 min) was 64.22%. The “Remaining Percentage (%)” value (human hepatocytes; human hepatocytes, 60 min) was 39.26%, the “Remaining Percentage (%)” value (human hepatocytes; human hepatocytes, 90 min) was 22.24% and the “Remaining Percentage (%)” value (human hepatocytes; human hepatocytes, 120 min) was 11.51%. The “Metabolic Stability in Hepatocytes (60 min), compound remaining” value (human hepatocytes; human, 60 min) was 39%, the Papp A→B (Caco-2 cell permeability; Caco-2, Caco-2 cell line, read-out: Permeability Papp (A-B)) was 24 ×10⁻⁶ cm/s and the Papp A→B (Caco-2 cell permeability; Caco-2, Caco-2 cells, read-out: Papp (A-B)) was 24 ×10⁻⁶ cm/s. For the same compound, the recovery (Caco-2 cell permeability; Caco-2, Caco-2 cells, read-out: Recovery (%) AP-BL) was 64.3%, the recovery (Caco-2 cell permeability; Caco-2, Caco-2 cells, read-out: Recovery (%) BL-AP) was 77.9% and the Papp B→A (Caco-2 cell permeability; Caco-2 cells) was 11.8 ×10⁻⁶ cm/s. For the same compound, the efflux ratio (Caco-2 cell permeability; Caco-2 cells, Papp(B-A)/Papp(A-B)) was 0.49 and the “Permeability Papp (A-B)” value (Caco-2 cells) was “good”.
